Data as given in ChEMBL document CHEMBL3988442, “University of Dundee, Small-Polar-MMV Screening Library” (2021).

Molecular target: Tryptophan--tRNA ligase (Mycobacterium tuberculosis (strain ATCC 25618 / H37Rv), UniProt P9WFT3)
Test: Biochemical assay for Mt-TrpRS
Assay type: functional

Chain of Tryptophan--tRNA ligase (P9WFT3 whole entry): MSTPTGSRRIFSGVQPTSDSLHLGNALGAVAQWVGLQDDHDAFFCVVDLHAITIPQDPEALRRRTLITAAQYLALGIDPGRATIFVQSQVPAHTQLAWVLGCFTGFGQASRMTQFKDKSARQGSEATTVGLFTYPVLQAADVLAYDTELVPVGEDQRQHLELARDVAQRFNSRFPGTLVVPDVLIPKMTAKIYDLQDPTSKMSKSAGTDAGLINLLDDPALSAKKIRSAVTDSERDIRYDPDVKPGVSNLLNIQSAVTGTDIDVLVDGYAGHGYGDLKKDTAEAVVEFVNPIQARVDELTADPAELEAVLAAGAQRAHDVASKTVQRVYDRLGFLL

Row | Structure (SMILES) | IC50 [µM]
1 | CN1C(=O)CC(C(=O)O)C12CCN(Cc1ccc(Cl)c(F)c1)CC2 (stereo not given) | > 195
2 | O[C@H]1CN(Cc2cccc(C(F)(F)F)c2)CC[C@@]12CCCO2 | > 195
3 | CNC(=O)C1(C)CN(c2nc(C)cc(C)n2)CCO1 (stereo not given) | > 195
4 | CC(C)OCc1nn(C)c2c1CN(Cc1cccs1)CC2 | > 195
5 | CCC(CC)c1nnc(NC(=O)NC(C)Cn2cccn2)s1 (stereo not given) | > 195
6 | CN(C)C(=O)CN1CCOCC2(C1)CN(c1ncccn1)CCO2 (stereo not given) | > 195
7 | CC(C(=O)NCc1ccc(N2CCCC2)nc1)S(C)(=O)=O (stereo not given) | > 195
8 | CC(C)CC(=O)N1CC(=O)N(Cc2ccco2)CC(O)C1 (stereo not given) | > 195
9 | Cc1cc(N(C)C)nc(C2CCNC2)n1 (stereo not given) | > 195
10 | N#Cc1cccc(CN2CC[C@@H]3CN(c4ncccn4)CCO[C@@H]3C2)c1 | > 195
11 | O=C1CN(CC2CC2)Cc2nc(NCCc3ccccn3)sc21 | > 195
12 | CC(C)c1nc(CN2CCCC(Cn3cncn3)C2)cs1 (stereo not given) | > 195
13 | CC(=O)N1CCO[C@@H]2CN(Cc3cccc(Cl)c3)C[C@@H]2C1 | > 195
14 | Cc1cc(C)n(CC2CCCN2C(=O)c2c(C)noc2C)n1 (stereo not given) | > 195
15 | Cn1cnc(S(=O)(=O)N2CC3(CCN(c4ccccc4)C3)C2)c1 | > 195
16 | COCCc1ncc(CNC2(c3ccc(Cl)cc3Cl)CC2)cn1 | > 195
17 | Cc1noc(C)c1CN(Cc1cccs1)C1CCS(=O)(=O)C1 (stereo not given) | > 195
18 | COCCN1CCC12CCN(C(=O)c1ccc(C)nc1)C2 (stereo not given) | > 195
19 | NC(=O)C1(Cc2ccc(-c3ccccc3)cc2)CCNC1 (stereo not given) | > 195
20 | O=C1CCC(=O)N1c1nn(Cc2c(F)cccc2Cl)cc1Cl | > 195
21 | CNc1cccc(C2CCCN(C(=O)c3cccnc3)C2)n1 (stereo not given) | > 195
22 | Cc1cc(C[C@@H]2COC[C@H]2NCc2ccc(Cl)c(Cl)c2)on1 | > 195
23 | N#Cc1cn[nH]c1NCc1cc(Br)ccc1O | 31.4
24 | c1cncc(CN2CCc3ncnc(C4CC4)c3CC2)c1 | > 195
25 | O=C1CCC(=O)N1c1nn(Cc2cccc(F)c2)cc1Cl | > 195

Row | Structure (SMILES) | IC50 [µM]
26 | c1cc(-c2cnc(C3CCNCC3)cn2)n[nH]1 | > 195
27 | COCC(=O)N1CCO[C@]2(CCC[C@H]2COC)C1 | > 195
28 | CC1CCN(CCCNC(=O)NC(C)c2nncn2C)CC1 (stereo not given) | > 195
29 | O=C(O)C1(Cc2cc(-c3ccc(F)cc3)no2)CCOCC1 | > 195
30 | N#Cc1cnc(N2CCC3(CC2)OCCO3)nc1N | > 195
31 | CN1CCC(Cc2cncc(-c3ccccc3C(=O)O)n2)C1 (stereo not given) | > 195
32 | O=C(CC1CC1)N1CCC2(CC1)C(=O)NCCN2Cc1ccccc1 | > 195
33 | Cc1nc(Nc2ncccn2)cc(C2CCCN2C)n1 (stereo not given) | > 195
34 | O=C([C@@H]1C[C@@H]2CCN(Cc3ccoc3)C[C@H]2O1)N1CCCC1 | > 195
35 | Cc1cc(NC(=O)CNC2CCc3nc(C(C)C)nn3C2)no1 (stereo not given) | > 195
36 | COCCC(=O)NCCn1nc(C2CCNC2)c2cccnc21 (stereo not given) | > 195
37 | O=C(c1cccnc1)N1CCC(c2nc(O)cc(-c3ccncc3)n2)C1 (stereo not given) | > 195
38 | CC(C)(Oc1ccc(C(N)=O)cc1)C(=O)N(CCC#N)CC1CCCO1 (stereo not given) | > 195
39 | O=C(N[C@@H]1CN(Cc2ccc3[nH]ccc3c2)C[C@H]1O)c1cscn1 | > 195
40 | c1cnc(N2CCO[C@H]3CN(CC4CCOC4)C[C@H]32)cn1 (stereo not given in full) | > 195
41 | Cn1cc(C(=O)NCc2cncc3c2CCNC3)cn1 | > 195
42 | O=C([C@H]1COC[C@H]2CN(c3ccncn3)C[C@H]21)N1CCCC1 | > 195
43 | CSCC(C)(O)CNc1ncccc1I (stereo not given) | > 195
44 | Cc1cc(C[C@@H]2CCC[C@H]2NCc2ccccc2F)on1 | > 195
45 | CNc1cc(C2CCCN2Cc2ccc(OCC(=O)O)cc2)ccn1 (stereo not given) | > 195
46 | COc1ccccc1NC(=O)NCc1cn[nH]c1 | > 195
47 | c1cn(-c2cncc(C3CCNCC3)n2)cn1 | > 195
48 | CC(C)C(NC(=O)C1CCCC1)c1cc(O)nc(-c2cccnc2)n1 (stereo not given) | > 195
49 | O=C1NCC[C@]12CN(Cc1ccco1)C[C@H]2c1ccccc1 | > 195
50 | Cc1cc(CS(=O)(=O)CC(=O)N2c3ccccc3CC2C)no1 (stereo not given) | > 195

Row | Structure (SMILES) | IC50 [µM]
51 | CNc1cc(-c2ccncc2)ncn1 | > 195
52 | CO[C@H]1CN(c2ccccc2)S(=O)(=O)[C@@]12CCN(Cc1ccccc1)C2 | > 195
53 | O[C@@]1(c2ccccn2)CC[C@H]2CN(Cc3ccccn3)C[C@H]21 | > 195
54 | CNc1nccnc1C1CCN(C(C)C)CC1 | > 195
55 | COCC(=O)N1CC(=O)c2sc(Nc3ccc(F)cc3F)nc2C1 | > 195
56 | CN(C)[C@@H]1CN(C(=O)Cc2ccc(F)cc2)[C@@H]2CCCO[C@H]12 | > 195
57 | CCO[C@H]1CN(CC2CCOCC2)[C@@H]2CCCO[C@H]12 | > 195
58 | Cc1ccc(F)cc1-c1ccc(N)nc1 | > 195
59 | Cc1cnn(-c2ccc(S(N)(=O)=O)cc2F)c1 | > 195
60 | CCOC1COC2(CCN(CC3CC3)CC2)C1 (stereo not given) | > 195
61 | Cc1cc(CN(C)CCC(O)c2ccccc2)no1 (stereo not given) | > 195
62 | COCCC(=O)N1CCCC1c1csc(Nc2ccccn2)n1 (stereo not given) | > 195
63 | O=C(Cc1cccs1)N1CCC(O)(CN2CCc3ccccc3C2)C1 (stereo not given) | > 195
64 | CCN(CC)S(=O)(=O)N1CCCC(c2ncc3c(n2)CCN(C)C3)C1 (stereo not given) | > 195
65 | Cc1nc(Nc2nncs2)cc(C2CCCN2C)n1 (stereo not given) | > 195
66 | COc1ccccc1CC(=O)N1CC[C@H](O)[C@]2(CCCO2)C1 | > 195
67 | c1csc(CN2C[C@H](OCC3CC3)[C@H]3COC[C@H]32)n1 | > 195
68 | NC(=O)CN1CCCC(Cc2ccc(N3CCOCC3)nn2)C1 (stereo not given) | > 195
69 | CS(=O)(=O)NCc1cn2c(n1)CN(Cc1cccnc1)CC2 | > 195
70 | Cc1noc(C2(C)CCCN(C(=O)c3cccnc3)C2)n1 (stereo not given) | > 195
71 | Cn1c(=O)c2cc(C(=O)NCCOCC(F)(F)F)ccc2n(C)c1=O | > 195
72 | Cn1cc(CN2CC[C@H](O)[C@@H](n3ccc(=O)[nH]c3=O)CC2)cn1 | > 195
73 | COCCN1CC(=O)c2sc(NC(C)C)nc2C1 | > 195
74 | COC(=O)CCCNC(=O)Nc1ccccc1OC | > 195
75 | COc1cc(CN2CC[C@H](NC(C)=O)[C@@H](O)CC2)ccc1F | > 195

Row | Structure (SMILES) | IC50 [µM]
76 | Cc1cc(N)cc(C2CN(Cc3cc[nH]n3)CCO2)n1 (stereo not given) | > 195
77 | Cn1cnnc1C1CCN(C(=O)c2cc3c(s2)CCCC3)CC1 | > 195
78 | CCc1nnc(CN2CCCCC2Cn2cncn2)o1 (stereo not given) | > 195
79 | Cc1cccc(NCc2nc(C)ccc2O)c1 | 81.8
80 | COCCN1CCN(Cc2cnc(C(C)C)nc2)CC1 | > 195
81 | CCc1ccc(C(=O)N2CCC(c3nncn3CC)CC2)s1 | > 195
82 | Cc1cnn(CC2CCCN2Cc2nc(N)c3ccccc3n2)c1 (stereo not given) | > 195
83 | Cc1nc(C2CCCN2C(=O)CC2CCCC2)ncc1C(N)=O (stereo not given) | > 195
84 | O=C(c1cnco1)N1C[C@@H](O)[C@H](Oc2cccc(F)c2)C1 | > 195
85 | O=C(O)CCc1nc2nccc(-c3ccc(F)cc3)n2n1 | > 195
86 | CN(C)C(=O)N1CC[C@@H](c2ccc3ccccc3c2)[C@H](O)C1 | > 195
87 | COCCN1C(=O)CC[C@@H]2[C@H]1CCN2S(=O)(=O)c1cccs1 | > 195
88 | COCCN1CC(C(=O)N(C)Cc2ccc(Cl)s2)CC1=O (stereo not given) | > 195
89 | CN1CCN(Cc2cn3c(n2)CN(Cc2ccncc2)CC3)CC1 | > 195
90 | CCSc1ncc(Cl)c(C(=O)NC(CCSC)C(=O)O)n1 (stereo not given) | > 195
91 | c1ccc(OCC2C[C@@H]3[C@@H](C2)OCCN3Cc2ccoc2)nc1 (stereo not given in full) | > 195
92 | Cn1cc(C(=O)NCc2cncc3c2CCN(CC2CC2)C3)cn1 | > 195
93 | Cc1cc(N2CCC(c3n[nH]c4nccnc34)CC2)ncn1 | > 195
94 | Cc1cnc(N)c(C(=O)C2CCN(C(=O)C3CCC3)CC2)c1 | > 195
95 | O=C(C1CC1)N1CCN2C[C@@H](CO)[C@H](c3ccccc3)[C@H]2C1 | > 195
96 | CN(C)C(=O)CO[C@H]1CN(Cc2ccsc2)[C@@H]2COC[C@H]12 | > 195
97 | O=C1CO[C@H]2CN(Cc3ccccc3Br)C[C@@H]2N1 | > 195
98 | Cc1ccc(S(=O)(=O)N2CCC(O)(CN(C)C)C2)cc1 (stereo not given) | > 195
99 | O=C1NC(=O)c2c3c(nc(O)c21)CCCC3 | > 195
100 | NC(=O)C1(CCCc2ccccn2)CCCN(CCO)C1 (stereo not given) | > 195

Row | Structure (SMILES) | IC50 [µM]
101 | Cc1cc(C)nc(C2CCN(C(=O)c3cncnc3C)C2)n1 (stereo not given) | > 195
102 | CCC(=O)N1CCc2onc(CNS(C)(=O)=O)c2C1 | > 195
103 | NC(=O)CN1CCC(c2noc3cc(F)ccc23)CC1 | > 195
104 | Cc1nc(CN2CCC3(C2)CN(Cc2ccco2)C3)cs1 | > 195
105 | Nc1cnc(-c2ccc(F)cc2Cl)cn1 | > 195
106 | CC(C)(C)OC(=O)N1CC(=O)N(CCc2ccccc2)CC(O)C1 (stereo not given) | > 195
107 | Nc1nccnc1C1CN(C(=O)c2ccnnc2)CCO1 (stereo not given) | > 195
108 | c1cc(CN2C[C@H](OCC3CCOCC3)[C@H]3COC[C@H]32)co1 | > 195
109 | Cc1nc(C(=O)NCc2ccccn2)cc(C2CCCN2)n1 (stereo not given) | > 195
110 | Cc1nc(CCC(=O)NCC(N)=O)cc(C2CCNCC2)n1 | > 195
111 | COc1ccc(S(=O)(=O)N2CCC(O)(CN(C)C)C2)cc1 (stereo not given) | > 195
112 | COc1cccc(S(=O)(=O)N2C[C@@H](O)[C@H](N(C)C)C2)c1 | > 195
113 | CO[C@H]1CC[C@H]2[C@H]1OCCN2C(=O)C1=CCCC1 | > 195
114 | CC(=O)N1CCC(Cc2cnc(C(=O)N3CCCC3)cn2)C1 (stereo not given) | > 195
115 | CS(=O)(=O)N1CCCC(Cc2cncc(Br)c2)CC1 (stereo not given) | > 195
116 | Cc1nn(C)c(C)c1C1COCCN1C(=O)c1ccc(Cl)o1 (stereo not given) | > 195
117 | Cc1nc(C2CCN(Cc3ncc[nH]3)CC2)no1 | > 195
118 | c1cnnc(N2CCCC(NCc3nc(-c4ccco4)no3)C2)c1 (stereo not given) | > 195
119 | Cc1cccc(C2CCCN(C(=O)c3ccncc3)C2)n1 (stereo not given) | > 195
120 | O=C1CCC(=O)N1c1nn(Cc2ccccc2)cc1Cl | > 195
121 | CN(Cc1cnn(C)c1)C(=O)CN1CCCC(Cn2cncn2)C1 (stereo not given) | > 195
122 | CN(C)CC1(O)CCN(S(=O)(=O)c2cccc(F)c2)C1 (stereo not given) | > 195
123 | CCCS(=O)(=O)N1CC(=O)N(Cc2cccc(OC)c2OC)CC(O)C1 (stereo not given) | > 195
124 | CC(=O)N1N=C(c2ccccc2)OC1C(=O)NCCc1cccc(F)c1 (stereo not given) | > 195
125 | CCn1cnnc1C1CCN(C(=O)c2cc(C)c(C)s2)CC1 | > 195
